From patent US9458133B2, “Isoquinolines as potassium ion channel inhibitors” (BRISTOL-MYERS SQUIBB COMPANY, priority 2013, dated 2016)

Target: T1, human Kv 1.5 (Homo sapiens, UniProt P22460)
T1 construct: expressed in transfected cells; host or cells: mouse L-929 fibroblasts stably expressing human Kv1.5
Test: Block of IKur current in patch clamped L-929 cells stably expressing human Kv1.5
Type: cell-based
Details: L929, 0.3 μM; patch clamped mammalian L-929 cells expressing human Kv1.5 (IKur); read-out: KV1_5% Inh L929 @0.3 μM
Text: Synders, D. J. et al., “A rapidly activating and slowly inactivating potassium channel cloned from human heart: functional analysis after stable mammalian cell culture expression”, J. Gen. Physiol., 101:513-543 (1993). […]

T1 sequence (P22460 whole entry): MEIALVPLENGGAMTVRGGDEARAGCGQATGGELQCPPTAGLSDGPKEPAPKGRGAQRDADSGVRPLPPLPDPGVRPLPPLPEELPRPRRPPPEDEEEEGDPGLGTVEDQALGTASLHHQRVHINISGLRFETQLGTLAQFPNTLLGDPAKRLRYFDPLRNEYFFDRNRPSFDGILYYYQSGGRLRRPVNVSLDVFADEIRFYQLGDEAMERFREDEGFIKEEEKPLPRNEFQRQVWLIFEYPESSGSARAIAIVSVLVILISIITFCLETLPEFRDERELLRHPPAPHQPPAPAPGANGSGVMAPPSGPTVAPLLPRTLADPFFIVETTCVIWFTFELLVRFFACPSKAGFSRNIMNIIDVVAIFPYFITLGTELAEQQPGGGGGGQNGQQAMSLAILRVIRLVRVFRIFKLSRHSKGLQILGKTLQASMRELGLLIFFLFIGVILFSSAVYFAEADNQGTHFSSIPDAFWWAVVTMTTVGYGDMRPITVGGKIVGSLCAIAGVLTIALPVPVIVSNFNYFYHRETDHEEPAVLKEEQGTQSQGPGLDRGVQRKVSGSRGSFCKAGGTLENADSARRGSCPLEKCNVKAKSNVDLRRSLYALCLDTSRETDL

Point of comparison: `NS(=O)(=O)c1cncc(-c2cnc(NCC3CCCCO3)c3c(-c4ccccc4)cccc23)c1` (stereo not drawn) [Example 82, 5-(8-phenyl-1-((tetrahydro-2H-pyran-2-yl)methylamino)isoquinolin-4-yl)pyridine-3-sulfonamide], inhibition at 0.3 µM 85%. Against it:
- Cc1c(-c2cncc(S(N)(=O)=O)c2)nc(NCc2ccccn2)c2c(-c3ccccc3)cccc12 [Example 8, 5-(4-Methyl-8-phenyl-1-(pyridin-2-ylmethylamino)isoquinolin-3-yl)pyridine-3-sulfonamide] — lower, 61.4%
- NS(=O)(=O)c1ccc(-c2cc3cccc(-c4ccccc4)c3c(NCc3ccccn3)n2)cc1 [Example 33, 4-(8-phenyl-1-(pyridin-2-ylmethylamino)isoquinolin-3-yl)benzenesulfonamide] — lower, 73.4%
- NS(=O)(=O)c1cncc(-c2c(Cl)nc(NCc3ccccc3)c3c(-c4ccccc4)cccc23)c1 [Example 75, 5-(1-(benzylamino)-3-chloro-8-phenylisoquinolin-4-yl)pyridine-3-sulfonamide] — higher, 97.3%
- NS(=O)(=O)c1cncc(-c2c(Cl)nc(NCC3CCOCC3)c3c(-c4ccccc4)cccc23)c1 [Example 29, 5-(3-chloro-8-phenyl-1-((tetrahydro-2H-pyran-4-yl)methylamino)isoquinolin-4-yl)pyridine-3-sulfonamide] — higher, 88.4%
- NS(=O)(=O)c1cncc(-c2cc3cccc(-c4ccccc4)c3c(N[C@H]3CCN(Cc4ccccc4)C3)n2)c1 [Example 71, (S)-5-(1-(1-benzylpyrrolidin-3-ylamino)-8-phenylisoquinolin-3-yl)pyridine-3-sulfonamide] — lower, 67.7%
- CNS(=O)(=O)c1cccc(-c2cc3cccc(-c4ccccc4)c3c(NCc3ccccn3)n2)c1 [Example 34, N-methyl-3-(8-phenyl-1-(pyridin-2-ylmethylamino)isoquinolin-3-yl)benzenesulfonamide] — higher, 93.5%
- CS(=O)(=O)N(c1cncc(-c2cc3cccc(-c4ccccc4)c3c(NCc3ccccn3)n2)c1)S(C)(=O)=O [Example 32, N-(methylsulfonyl)-N-(5-(8-phenyl-1-(pyridin-2-ylmethylamino)isoquinolin-3-yl)pyridin-3-yl)methanesulfonamide] — lower, 70.7%
- NS(=O)(=O)Nc1ccccc1-c1cc2cccc(-c3ccccc3)c2c(NCc2ccccn2)n1 [Example 51] — higher, 86.3%
- CC(=O)Nc1cncc(-c2c(Cl)nc(NCc3ccccn3)c3c(-c4ccccc4)cccc23)c1 [Example 46, N-(5-(3-chloro-8-phenyl-1-(pyridin-2-ylmethylamino)isoquinolin-4-yl)pyridin-3-yl)acetamide] — higher, 98.4%
- Nc1ccccc1-c1cc2cccc(-c3ccccc3)c2c(NCc2ccccn2)n1 [Example 49, 3-(2-aminophenyl)-8-phenyl-N-(pyridin-2-ylmethyl)isoquinolin-1-amine] — lower, 52.2%
- NS(=O)(=O)c1cccc(-c2c(Cl)nc(NCc3ccccn3)c3c(-c4ccccc4)cccc23)c1 [Example 84, 3-(3-chloro-8-phenyl-1-(pyridin-2-ylmethylamino)isoquinolin-4-yl)benzenesulfonamide] — higher, 98.4%
- NC(=O)CS(=O)(=O)c1cccc(-c2cc3cccc(-c4ccccc4)c3c(NCc3ccccn3)n2)c1 [Example 7, 2-(3-(8-Phenyl-1-(pyridin-2-ylmethylamino)isoquinolin-3-yl)phenylsulfonyl)acetamide] — lower, 34.8%
- Cc1n[nH]c(C)c1-c1cc2cccc(-c3ccccc3)c2c(NCc2ccccn2)n1 [Example 20, 3-(3,5-dimethyl-1H-pyrazol-4-yl)-8-phenyl-N-(pyridin-2-ylmethyl)isoquinolin-1-amine] — lower, 64.5%
- Nc1cncc(-c2cc3cccc(-c4ccccc4)c3c(NCc3ccccn3)n2)c1 [Example 2, 3-(5-Aminopyridin-3-yl)-8-phenyl-N-(pyridin-2-ylmethyl)isoquinolin-1-amine] — lower, 66.2%
- NS(=O)(=O)c1cncc(-c2cnc(NCc3ccccc3)c3c(-c4ccccc4)cccc23)c1 [Example 15, 5-(1-(Benzylamino)-8-phenylisoquinolin-4-yl)pyridine-3-sulfonamide] — higher, 96.2%
- Cc1nc(NCc2ccccc2)c2c(-c3ccccc3)cccc2c1-c1cncc(S(N)(=O)=O)c1 [Example 14, 5-(1-(Benzylamino)-3-methyl-8-phenylisoquinolin-4-yl)pyridine-3-sulfonamide] — higher, 93.2%
- NS(=O)(=O)c1cccc(-c2cnc(NCc3ccccn3)c3c(-c4ccccc4)cccc23)c1 [Example 85, 3-(8-phenyl-1-(pyridin-2-ylmethylamino)isoquinolin-4-yl)benzenesulfonamide] — higher, 99%
- CS(=O)(=O)Nc1ccc(-c2c(Cl)nc(NCc3ccccn3)c3c(-c4ccccc4)cccc23)cc1 [Example 69, N-(4-(3-chloro-8-phenyl-1-(pyridin-2-ylmethylamino)isoquinolin-4-yl)phenyl)methanesulfonamide] — higher, 98.4%
- NS(=O)(=O)c1cncc(-c2cc3cccc(-c4ccccc4)c3c(NCc3ccc(F)cc3F)n2)c1 [Example 50, 5-(1-(2,4-difluorobenzylamino)-8-phenylisoquinolin-3-yl)pyridine-3-sulfonamide] — lower, 54.1%
- NS(=O)(=O)Nc1cncc(-c2cc3cccc(-c4ccccc4)c3c(NCc3ccccn3)n2)c1 [Example 5] — lower, 75.6%
- NC(=O)Nc1cncc(-c2c(Cl)nc(NCc3ccccn3)c3c(-c4ccccc4)cccc23)c1 [Example 48, 1-(5-(3-chloro-8-phenyl-1-(pyridin-2-ylmethylamino)isoquinolin-4-yl)pyridin-3-yl)urea] — higher, 98.6%
- NS(=O)(=O)c1cncc(-c2c(Cl)nc(NCc3c(F)cccc3F)c3c(-c4ccccc4)cccc23)c1 [Example 27, 5-(3-chloro-1-(2,6-difluorobenzylamino)-8-phenylisoquinolin-4-yl)pyridine-3-sulfonamide] — higher, 93.6%
- O=C(O)c1cncc(-c2c(Cl)nc(NCc3ccccn3)c3c(-c4ccccc4)cccc23)c1 [Example 12, 5-(3-Chloro-8-phenyl-1-(pyridin-2-ylmethylamino)isoquinolin-4-yl)nicotinic acid] — lower, 52.3%
- N#Cc1cccc(-c2c(Cl)nc(NCc3ccccn3)c3c(-c4ccccc4)cccc23)c1 [Example 61, 3-(3-chloro-8-phenyl-1-(pyridin-2-ylmethylamino)isoquinolin-4-yl)benzonitrile] — higher, 95.1%
- NC(=O)c1ccc(-c2cc3cccc(-c4ccccc4)c3c(NCc3ccccn3)n2)cc1 [Example 42, 4-(8-phenyl-1-(pyridin-2-ylmethylamino)isoquinolin-3-yl)benzamide] — lower, 60.3%
- CC(Nc1nc(Cl)c(-c2cncc(S(N)(=O)=O)c2)c2cccc(-c3ccccc3)c12)c1ccccn1 (stereo not drawn) [Example 26, 5-(3-chloro-8-phenyl-1-(1-(pyridin-2-yl)ethylamino)isoquinolin-4-yl)pyridine-3-sulfonamide] — higher, 98.8%
- NS(=O)(=O)c1cncc(-c2cc3cccc(-c4ccccc4)c3c(NCc3ccccn3)n2)c1 [Example 1, 5-(8-Phenyl-1-(pyridin-2-ylmethylamino)isoquinolin-3-yl)pyridine-3-sulfonamide] — higher, 95.1%
- C1=C(c2cnc(NCc3ccccc3)c3c(-c4ccccc4)cccc23)CCOC1 [Example 28, N-benzyl-4-(3,6-dihydro-2H-pyran-4-yl)-8-phenylisoquinolin-1-amine] — lower, 76.1%
- COc1cccc(CNc2nc(-c3cncc(S(N)(=O)=O)c3)cc3cccc(-c4ccccc4)c23)c1 [Example 54, 5-(1-(3-methoxybenzylamino)-8-phenylisoquinolin-3-yl)pyridine-3-sulfonamide] — lower, 82.4%
- O=C(Nc1cccc(-c2cc3cccc(-c4ccccc4)c3c(NCc3ccccn3)n2)c1)N1CCOCC1 [Example 6, N-(3-(8-Phenyl-1-(pyridin-2-ylmethylamino)isoquinolin-3-yl)phenyl)morpholine-4-carboxamide] — higher, 92.2%
- NS(=O)(=O)c1cccc(-c2c(Cl)nc(NCc3ccccc3)c3c(-c4ccccc4)cccc23)c1 [Example 78, 3-(1-(benzylamino)-3-chloro-8-phenylisoquinolin-4-yl)benzenesulfonamide] — higher, 91%
- c1ccc(CNc2ncc(-c3cncc(-c4nn[nH]n4)c3)c3cccc(-c4ccccc4)c23)cc1 [Example 19, 4-(5-(2H-Tetrazol-5-yl)pyridin-3-yl)-N-benzyl-8-phenylisoquinolin-1-amine] — higher, 90%
- CC(=O)Nc1ccccc1-c1cc2cccc(-c3ccccc3)c2c(NCc2ccccn2)n1 [Example 30, N-(2-(8-phenyl-1-(pyridin-2-ylmethylamino)isoquinolin-3-yl)phenyl)acetamide] — lower, 51.3%
- Clc1nc(NCc2ccccc2)c2c(-c3ccccc3)cccc2c1C1=CCOCC1 [Example 83, N-benzyl-3-chloro-4-(3,6-dihydro-2H-pyran-4-yl)-8-phenylisoquinolin-1-amine] — lower, 19.3%
- NS(=O)(=O)c1cncc(-c2cc3cccc(-c4ccccc4)c3c(NCc3ccccc3Cl)n2)c1 [Example 37, 5-(1-(2-chlorobenzylamino)-8-phenylisoquinolin-3-yl)pyridine-3-sulfonamide] — lower, 34.2%
- Cc1ccccc1CNc1nc(-c2cncc(S(N)(=O)=O)c2)cc2cccc(-c3ccccc3)c12 [Example 45, 5-(1-(2-methylbenzylamino)-8-phenylisoquinolin-3-yl)pyridine-3-sulfonamide] — lower, 78.5%
- NC(=O)c1nc(NCc2ccccc2)c2c(-c3ccccc3)cccc2c1-c1cncc(S(N)(=O)=O)c1 [Example 17, 1-(Benzylamino)-8-phenyl-4-(5-sulfamoylpyridin-3-yl)isoquinoline-3-carboxamide] — higher, 93.5%
- CC(C)CNc1nc(-c2cncc(S(N)(=O)=O)c2)cc2cccc(-c3ccccc3)c12 [Example 24, 5-(1-(isobutylamino)-8-phenylisoquinolin-3-yl)pyridine-3-sulfonamide] — lower, 41.5%
